Tested on: subjects with moderate-to-severe plaque psoriasis
Assay: IGA score, Example 2
Type: in vivo, human
Conditions: for Subjects achieving IGA Score = 0 at Week 52 / Subjects achieving IGA Score = 0 or 1 at Week 52: non-responder imputation
Description: Described below is a multicenter, long-term extension (LTE), double-blind, dose-ranging, parallel group interventional study in participants from Example 1 to evaluate the long-term efficacy and safety of the hydrochloride salt of the compound of Formula (I) for the treatment of moderate-to-severe plaque psoriasis. Patients from Example 1 continued to receive the same dose of the compound of Formula (I) for an additional 36-week treatment period with a 4-week safety follow up period after the last administration of the compound of Formula (I). Patients randomized to placebo in Example 1 received the compound of Formula (I) at a dose of 100 mg QD starting at Week 16 of Example 1 (FIG. 21).
Secondary endpoints included additional change from baseline of Example 1 in PASI, IGA, and PSSD at Week 52, including the proportions of subjects that achieved PAST 90, PAST 100, an IGA score of cleared (0) or minimal (1), PSSD symptoms score=0, and PSSD signs score=0.

[1] = Placebo → 100 mg QD, crossed over at or after Week 16

Structure (SMILES): CC(=O)NCCCC[C@@H]1NC(=O)[C@H](Cc2c[nH]c3c(C)cccc23)NC(=O)[C@H]([C@@H](C)O)NC(=O)[C@H](CC(N)=O)NC(=O)[C@@H](NC(C)=O)C(C)(C)SSC(C)(C)[C@@H](C(=O)N[C@@H](Cc2ccc(OCCN)cc2)C(=O)N[C@@H](Cc2ccc3ccccc3c2)C(=O)NC2(C(=O)N[C@@H](CCC(=O)O)C(=O)N[C@@H](CC(N)=O)C(=O)N[C@@H](Cc3cccnc3)C(=O)N(C)CC(N)=O)CCOCC2)NC1=O [IL-23 receptor antagonist peptide, Ac-[Pen]*-N-T-[W(7-Me)]-[Lys(Ac)]-[Pen]*-Phe[4-(2-aminoethoxy)]-[2-Nal]-[THP]-E-N-[3-Pal]-Sarc-NH2 (*[Pen]-[Pen]* formdisulfidebond)]
- Subjects achieving IGA Score = 0 at Week 52 (25 mg BID): (19.5%)
- Subjects achieving IGA Score = 0 or 1 at Week 52 (25 mg BID): (46.3%)
- Subjects achieving IGA Score = 0 at Week 52 (25 mg QD): (14.0%)
- Subjects achieving IGA Score = 0 or 1 at Week 52 (25 mg QD): (37.2%)
- Subjects achieving IGA Score = 0 at Week 52 (50 mg QD): (23.3%)
- Subjects achieving IGA Score = 0 or 1 at Week 52 (50 mg QD): (60.5%)
- Subjects achieving IGA Score = 0 at Week 52 [1]: 11 (31.4%)
- Subjects achieving IGA Score = 0 or 1 at Week 52 [1]: 23 (65.7%)
- IGA Score ≤2 (‘Mild’or better), subjects (%) (Week 1, 25 mg BID, N=41): (7.3%)
- IGA Score ≤2 (‘Mild’or better), subjects (%) (Week 1, 25 mg QD, N=43): (14.0%)
- IGA Score = 0 (‘Cleared’) or 1 (‘Minimal’), subjects (%) (Week 1, 50 mg QD, N=43): (2.3%)
- IGA Score ≤2 (‘Mild’or better), subjects (%) (Week 1, 50 mg QD, N=43): (16.3%)
- IGA Score = 0 (‘Cleared’) or 1 (‘Minimal’), subjects (%) (Week 1, 100 mg BID, N=42): (2.4%)
- IGA Score ≤2 (‘Mild’or better), subjects (%) (Week 1, 100 mg BID, N=42): (23.8%)
- IGA Score = 0 (‘Cleared’) or 1 (‘Minimal’), subjects (%) (Week 1, 100 mg QD, N=43): (4.7%)
- IGA Score ≤2 (‘Mild’or better), subjects (%) (Week 1, 100 mg QD, N=43): (9.3%)
- IGA Score = 0 (‘Cleared’) or 1 (‘Minimal’), subjects (%) (Week 2, 25 mg BID, N=41): (2.4%)
- IGA Score ≤2 (‘Mild’or better), subjects (%) (Week 2, 25 mg BID, N=41): (22.0%)
- IGA Score ≤2 (‘Mild’or better), subjects (%) (Week 2, 25 mg QD, N=43): (20.9%)
- IGA Score = 0 (‘Cleared’) or 1 (‘Minimal’), subjects (%) (Week 2, 50 mg QD, N=43): (7.0%)
- IGA Score ≤2 (‘Mild’or better), subjects (%) (Week 2, 50 mg QD, N=43): (34.9%)
- IGA Score = 0 (‘Cleared’) or 1 (‘Minimal’), subjects (%) (Week 2, 100 mg BID, N=42): (9.5%)
- IGA Score ≤2 (‘Mild’or better), subjects (%) (Week 2, 100 mg BID, N=42): (33.3%)
- IGA Score = 0 (‘Cleared’) or 1 (‘Minimal’), subjects (%) (Week 2, 100 mg QD, N=43): (4.7%)
- IGA Score ≤2 (‘Mild’or better), subjects (%) (Week 2, 100 mg QD, N=43): (34.9%)
- IGA Score = 0 (‘Cleared’) or 1 (‘Minimal’), subjects (%) (Week 4, 25 mg BID, N=41): (17.1%)
- IGA Score ≤2 (‘Mild’or better), subjects (%) (Week 4, 25 mg BID, N=41): (51.2%)
- IGA Score = 0 (‘Cleared’) or 1 (‘Minimal’), subjects (%) (Week 4, 25 mg QD, N=43): (9.3%)
- IGA Score ≤2 (‘Mild’or better), subjects (%) (Week 4, 25 mg QD, N=43): (44.2%)
- IGA Score = 0 (‘Cleared’) or 1 (‘Minimal’), subjects (%) (Week 4, 50 mg QD, N=43): (16.3%)
- IGA Score ≤2 (‘Mild’or better), subjects (%) (Week 4, 50 mg QD, N=43): (48.8%)
- IGA Score = 0 (‘Cleared’) or 1 (‘Minimal’), subjects (%) (Week 4, 100 mg BID, N=42): (38.1%)
- IGA Score ≤2 (‘Mild’or better), subjects (%) (Week 4, 100 mg BID, N=42): (69.0%)
- IGA Score = 0 (‘Cleared’) or 1 (‘Minimal’), subjects (%) (Week 4, 100 mg QD, N=43): (20.9%)
- IGA Score ≤2 (‘Mild’or better), subjects (%) (Week 4, 100 mg QD, N=43): (65.1%)
- IGA Score = 0 (‘Cleared’) or 1 (‘Minimal’), subjects (%) (Week 8, 25 mg BID, N=41): (26.8%)
- IGA Score = 0 (‘Cleared’), subjects (%) (Week 8, 25 mg BID, N=41): (4.9%)
- IGA Score ≤2 (‘Mild’or better), subjects (%) (Week 8, 25 mg BID, N=41): (73.2%)
- IGA Score = 0 (‘Cleared’) or 1 (‘Minimal’), subjects (%) (Week 8, 25 mg QD, N=43): (27.9%)
- IGA Score = 0 (‘Cleared’), subjects (%) (Week 8, 25 mg QD, N=43): (2.3%)
- IGA Score ≤2 (‘Mild’or better), subjects (%) (Week 8, 25 mg QD, N=43): (55.8%)
- IGA Score = 0 (‘Cleared’) or 1 (‘Minimal’), subjects (%) (Week 8, 50 mg QD, N=43): (44.2%)
- IGA Score = 0 (‘Cleared’), subjects (%) (Week 8, 50 mg QD, N=43): (4.7%)
- IGA Score ≤2 (‘Mild’or better), subjects (%) (Week 8, 50 mg QD, N=43): (74.4%)
- IGA Score = 0 (‘Cleared’) or 1 (‘Minimal’), subjects (%) (Week 8, 100 mg BID, N=42): (64.3%)
- IGA Score = 0 (‘Cleared’), subjects (%) (Week 8, 100 mg BID, N=42): (19.0%)
- IGA Score ≤2 (‘Mild’or better), subjects (%) (Week 8, 100 mg BID, N=42): (78.6%)
- IGA Score = 0 (‘Cleared’) or 1 (‘Minimal’), subjects (%) (Week 8, 100 mg QD, N=43): (46.5%)
- IGA Score = 0 (‘Cleared’), subjects (%) (Week 8, 100 mg QD, N=43): (9.3%)
- IGA Score ≤2 (‘Mild’or better), subjects (%) (Week 8, 100 mg QD, N=43): (72.1%)
- IGA Score = 0 (‘Cleared’) or 1 (‘Minimal’), subjects (%) (Week 12, 25 mg BID, N=41): (43.9%)
- IGA Score = 0 (‘Cleared’), subjects (%) (Week 12, 25 mg BID, N=41): (7.3%)
- IGA Score ≤2 (‘Mild’or better), subjects (%) (Week 12, 25 mg BID, N=41): (78.0%)
- IGA Score = 0 (‘Cleared’) or 1 (‘Minimal’), subjects (%) (Week 12, 25 mg QD, N=43): (25.6%)
- IGA Score = 0 (‘Cleared’), subjects (%) (Week 12, 25 mg QD, N=43): (7.0%)
- IGA Score ≤2 (‘Mild’or better), subjects (%) (Week 12, 25 mg QD, N=43): (72.1%)
- IGA Score = 0 (‘Cleared’) or 1 (‘Minimal’), subjects (%) (Week 12, 50 mg QD, N=43): (51.2%)
- IGA Score = 0 (‘Cleared’), subjects (%) (Week 12, 50 mg QD, N=43): (9.3%)
- IGA Score ≤2 (‘Mild’or better), subjects (%) (Week 12, 50 mg QD, N=43): (81.4%)
- IGA Score = 0 (‘Cleared’) or 1 (‘Minimal’), subjects (%) (Week 12, 100 mg BID, N=42): (66.7%)
- IGA Score = 0 (‘Cleared’), subjects (%) (Week 12, 100 mg BID, N=42): (40.5%)
- IGA Score ≤2 (‘Mild’or better), subjects (%) (Week 12, 100 mg BID, N=42): (85.7%)
- IGA Score = 0 (‘Cleared’) or 1 (‘Minimal’), subjects (%) (Week 12, 100 mg QD, N=43): (53.5%)
- IGA Score = 0 (‘Cleared’), subjects (%) (Week 12, 100 mg QD, N=43): (18.6%)
- IGA Score ≤2 (‘Mild’or better), subjects (%) (Week 12, 100 mg QD, N=43): (81.4%)
- IGA Score = 0 (‘Cleared’) or 1 (‘Minimal’), subjects (%) (Week 16, 25 mg BID, N=41): (51.2%)
- IGA Score = 0 (‘Cleared’), subjects (%) (Week 16, 25 mg BID, N=41): (14.6%)
- IGA Score ≤2 (‘Mild’or better), subjects (%) (Week 16, 25 mg BID, N=41): (73.2%)
- IGA Score = 0 (‘Cleared’) or 1 (‘Minimal’), subjects (%) (Week 16, 25 mg QD, N=43): (39.5%)
- IGA Score = 0 (‘Cleared’), subjects (%) (Week 16, 25 mg QD, N=43): (16.3%)
- IGA Score ≤2 (‘Mild’or better), subjects (%) (Week 16, 25 mg QD, N=43): (67.4%)
- IGA Score = 0 (‘Cleared’) or 1 (‘Minimal’), subjects (%) (Week 16, 50 mg QD, N=43): (58.1%)
- IGA Score = 0 (‘Cleared’), subjects (%) (Week 16, 50 mg QD, N=43): (34.9%)
- IGA Score ≤2 (‘Mild’or better), subjects (%) (Week 16, 50 mg QD, N=43): (81.4%)
- IGA Score = 0 (‘Cleared’) or 1 (‘Minimal’), subjects (%) (Week 16, 100 mg BID, N=42): (64.3%)
- IGA Score = 0 (‘Cleared’), subjects (%) (Week 16, 100 mg BID, N=42): (45.2%)
- IGA Score ≤2 (‘Mild’or better), subjects (%) (Week 16, 100 mg BID, N=42): (81.0%)
- IGA Score = 0 (‘Cleared’) or 1 (‘Minimal’), subjects (%) (Week 16, 100 mg QD, N=43): (62.8%)
- IGA Score = 0 (‘Cleared’), subjects (%) (Week 16, 100 mg QD, N=43): (27.9%)
- IGA Score ≤2 (‘Mild’or better), subjects (%) (Week 16, 100 mg QD, N=43): (79.1%)
- IGA Score = 0 (‘Cleared’) or 1 (‘Minimal’), subjects (%) (Week 20, 25 mg BID, N=41): (48.8%)
- IGA Score = 0 (‘Cleared’), subjects (%) (Week 20, 25 mg BID, N=41): (19.5%)
- IGA Score ≤2 (‘Mild’or better), subjects (%) (Week 20, 25 mg BID, N=41): (75.6%)
- IGA Score = 0 (‘Cleared’) or 1 (‘Minimal’), subjects (%) (Week 20, 25 mg QD, N=43): (44.2%)
- IGA Score = 0 (‘Cleared’), subjects (%) (Week 20, 25 mg QD, N=43): (14.0%)
- IGA Score ≤2 (‘Mild’or better), subjects (%) (Week 20, 25 mg QD, N=43): (65.1%)
- IGA Score = 0 (‘Cleared’) or 1 (‘Minimal’), subjects (%) (Week 20, 50 mg QD, N=43): (55.8%)
- IGA Score = 0 (‘Cleared’), subjects (%) (Week 20, 50 mg QD, N=43): (20.9%)
- IGA Score ≤2 (‘Mild’or better), subjects (%) (Week 20, 50 mg QD, N=43): (81.4%)
- IGA Score = 0 (‘Cleared’) or 1 (‘Minimal’), subjects (%) (Week 20, 100 mg BID, N=42): (61.9%)
- IGA Score = 0 (‘Cleared’), subjects (%) (Week 20, 100 mg BID, N=42): (42.9%)
- IGA Score ≤2 (‘Mild’or better), subjects (%) (Week 20, 100 mg BID, N=42): (81.0%)
- IGA Score = 0 (‘Cleared’) or 1 (‘Minimal’), subjects (%) (Week 20, 100 mg QD, N=43): (58.1%)
- IGA Score = 0 (‘Cleared’), subjects (%) (Week 20, 100 mg QD, N=43): (16.3%)

Source: patent US20260232767A1, “INTERLEUKIN-23 RECEPTOR ANTAGONIST PEPTIDES FOR USE IN THE TREATMENT OF PSORIASIS” (Janssen Pharmaceutica NV, priority 2023, published 2026)
